Among the data in ChEMBL document CHEMBL2040842, “Synthesis and Biochemical Testing of 3-(Carboxyphenylethyl)imidazo[2,1-f][1,2,4]triazines as Inhibitors of AMP Deaminase” (ACS Med Chem Lett, 2010) are IC50 and Ki values, retold here.

The target of assay [1] is T1, AMP deaminase 1 (Homo sapiens, UniProt P23109).
T1 sequence (P23109 whole entry): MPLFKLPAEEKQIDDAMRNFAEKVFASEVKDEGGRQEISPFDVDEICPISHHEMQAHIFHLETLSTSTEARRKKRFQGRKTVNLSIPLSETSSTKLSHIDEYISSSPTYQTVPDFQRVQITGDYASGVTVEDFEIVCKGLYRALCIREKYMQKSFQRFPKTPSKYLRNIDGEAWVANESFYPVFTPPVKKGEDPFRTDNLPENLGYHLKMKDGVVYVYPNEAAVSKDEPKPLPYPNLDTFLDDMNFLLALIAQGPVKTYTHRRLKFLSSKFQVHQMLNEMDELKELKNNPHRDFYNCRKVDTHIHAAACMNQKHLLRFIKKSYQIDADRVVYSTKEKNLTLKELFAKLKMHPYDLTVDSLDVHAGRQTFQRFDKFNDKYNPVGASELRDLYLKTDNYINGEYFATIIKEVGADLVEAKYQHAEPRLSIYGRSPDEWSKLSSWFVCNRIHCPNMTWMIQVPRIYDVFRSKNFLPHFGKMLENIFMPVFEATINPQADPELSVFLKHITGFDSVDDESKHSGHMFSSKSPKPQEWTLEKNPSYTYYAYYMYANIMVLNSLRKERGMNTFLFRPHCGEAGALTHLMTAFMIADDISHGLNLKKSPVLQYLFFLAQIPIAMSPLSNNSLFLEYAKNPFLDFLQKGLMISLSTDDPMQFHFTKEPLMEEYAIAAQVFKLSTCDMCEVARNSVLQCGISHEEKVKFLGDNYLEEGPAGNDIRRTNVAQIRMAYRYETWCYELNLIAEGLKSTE
Description: Inhibition of human skeletal muscle AMPD1. More on the design: species or system Muscle tissue.

Assay [2] can be described thus: Inhibition of AMP deaminase.
The nature of assay [3]: Inhibition of human recombinant AMPD1 deltaM54 mutant expressed in Sf9 cells.
Assay [4] is described as follows: Inhibition of human recombinant AMPD2-1A/2 expressed in Sf9 cells.
The target in assay [5] is T2, AMP deaminase 3 (Homo sapiens, UniProt Q01432).
T2 sequence (Q01432 whole entry): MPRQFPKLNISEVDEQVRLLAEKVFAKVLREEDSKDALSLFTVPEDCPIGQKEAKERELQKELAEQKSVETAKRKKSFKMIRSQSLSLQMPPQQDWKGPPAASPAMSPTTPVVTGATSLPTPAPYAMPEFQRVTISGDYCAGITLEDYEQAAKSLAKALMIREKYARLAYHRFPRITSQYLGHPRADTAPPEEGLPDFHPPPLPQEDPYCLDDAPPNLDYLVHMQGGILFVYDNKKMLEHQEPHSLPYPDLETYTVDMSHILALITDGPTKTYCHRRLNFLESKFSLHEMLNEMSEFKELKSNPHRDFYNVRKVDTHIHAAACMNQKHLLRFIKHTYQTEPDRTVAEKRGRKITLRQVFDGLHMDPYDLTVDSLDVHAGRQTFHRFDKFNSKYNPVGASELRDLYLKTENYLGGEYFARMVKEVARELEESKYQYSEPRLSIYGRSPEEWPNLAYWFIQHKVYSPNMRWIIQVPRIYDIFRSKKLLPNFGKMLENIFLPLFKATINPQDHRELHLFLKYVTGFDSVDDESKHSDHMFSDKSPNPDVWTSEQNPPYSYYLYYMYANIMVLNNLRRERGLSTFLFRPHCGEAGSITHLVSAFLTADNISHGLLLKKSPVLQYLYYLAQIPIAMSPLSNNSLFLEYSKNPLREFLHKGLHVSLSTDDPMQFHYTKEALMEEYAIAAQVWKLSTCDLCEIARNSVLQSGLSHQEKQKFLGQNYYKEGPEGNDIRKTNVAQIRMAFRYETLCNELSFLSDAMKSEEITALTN
Description: Inhibition of human recombinant AMPD3-1b expressed in Sf9 cells.

For assay [6], the target named is AMP deaminase (Arabidopsis thaliana, UniProt O80452, V211M). Description: Inhibition of Arabidopsis recombinant AMPD deltaV211M mutant expressed in Sf9 cells.
A short description of assay [7]: Inhibition of porcine heart AMPD3. Details: species or system Sus scrofa.

AMP deaminase, sequence (O80452 whole entry V211M): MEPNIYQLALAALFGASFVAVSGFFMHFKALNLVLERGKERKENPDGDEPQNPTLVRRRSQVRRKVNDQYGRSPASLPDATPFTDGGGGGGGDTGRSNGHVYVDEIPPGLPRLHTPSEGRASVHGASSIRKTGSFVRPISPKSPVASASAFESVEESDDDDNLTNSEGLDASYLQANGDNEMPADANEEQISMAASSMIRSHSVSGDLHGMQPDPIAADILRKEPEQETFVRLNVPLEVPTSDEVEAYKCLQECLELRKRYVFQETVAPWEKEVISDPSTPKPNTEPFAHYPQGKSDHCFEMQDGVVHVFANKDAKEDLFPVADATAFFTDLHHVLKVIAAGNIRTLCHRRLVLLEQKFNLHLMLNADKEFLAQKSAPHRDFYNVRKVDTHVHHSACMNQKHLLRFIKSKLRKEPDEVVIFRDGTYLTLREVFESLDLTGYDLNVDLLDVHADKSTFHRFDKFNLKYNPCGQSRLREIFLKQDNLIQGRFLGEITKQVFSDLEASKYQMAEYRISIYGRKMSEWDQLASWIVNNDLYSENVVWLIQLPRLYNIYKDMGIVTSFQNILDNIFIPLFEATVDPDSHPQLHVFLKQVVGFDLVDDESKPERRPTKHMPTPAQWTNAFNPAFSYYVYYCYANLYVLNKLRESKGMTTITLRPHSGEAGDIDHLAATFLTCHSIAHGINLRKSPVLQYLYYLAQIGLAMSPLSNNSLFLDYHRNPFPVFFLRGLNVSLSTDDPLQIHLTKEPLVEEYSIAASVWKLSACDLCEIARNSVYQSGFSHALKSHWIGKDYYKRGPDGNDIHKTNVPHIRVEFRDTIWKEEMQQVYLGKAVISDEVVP

For the compound `O=C(O)c1cc(CCn2cnc3c2N=CNCC3O)c2c(c1Br)CCCC2` (stereo unspecified), in assay [1], the concentration for half-maximal inhibition (IC50) stood at 0.5 µM.

As to `O=P(O)(O)OC[C@H]1O[C@@H](n2cnc3c2N=CNC[C@H]3O)[C@H](O)[C@@H]1O`, in assay [2], the affinity corresponds to a Ki of 5.5 pM.

With `O=C(O)c1cccc(CCc2cnc3cncnn23)c1`, the IC50 in assay [3] is 310 µM; in assay [4] it was 100 µM; in assay [5], 370 µM; in assay [6], 1400 µM.

For the compound `O=C(O)c1cc2c(c(CCc3cnc4cncnn34)c1)CCCC2`, the IC50 was 5.7 µM in assay [3], 2.3 µM in assay [4], 0.9 µM in assay [5] and 200 µM in assay [6].

Take `O=C(O)c1cccc(CCn2cnc3c2NC=NCC3O)c1` (stereo unspecified): the Ki in assay [7] stood at 0.51 µM.

A word on the IC50: it is the concentration that inhibits the measured activity by half. By Ki is commonly meant a measure of affinity in units of concentration, obtained from inhibition or displacement. Higher therefore signals lower affinity.
